From patent US11241421B2, “Combination therapies for treating cancer” (UNIVERSITY OF VIRGINIA PATENT FOUNDATION, priority 2016, dated 2022)

What was measured:
[1] = relative to the methoxy compound; cited from earlier work
[2] = system: CBFβ-SMMHC fusion protein; details: cited from earlier work
[3] = system: Cbfb^+/MYH11; Nras^+/G12D leukemic cells; assay: Leukemia transplantation studies in mice (inv(16) AML model); assay type: in vivo; details: for white blood cell count: peripheral blood, doxorubicin 2 mg/kg single dose, AI-10-49 200 mg/kg daily intraperitoneally for 10 days, FIG. 1; for Lin-Sca1-c-Kit+ cell population (number of cells): spleen, flow cytometry, same dosing, FIG. 4
Experimental: The experiments with animals were performed in accordance with a protocol reviewed and approved by the University of Massachusetts Institutional Animal Care and Use Committee. An efficient mouse model of inv(16)AML was used. (L. Xue, et al., 2014.) Leukemic cells carrying Cbfb^+/MYH11 and Nras^+/G12D oncogenic alleles were generated in CD45.2 C57BL/6 mice, as previously described (Illendula, et al., 2015.) Briefly, 2×10^3 Cbfb^+/MYH11; Nras^+/G12D leukemic cells were transplanted into each of 16 sub-lethally irradiated six to eight-week-old CD45.1 C57BL/6 female mice. Five days post-transplant, mice were placed in 4 groups with 4 mice in each group: DMSO (control, 50 μL), Dox, AI-10-49, and Dox+AI-10-49. Both Dox groups received a single dose of doxorubicin (2 mg/kg) 5 days post-transplant. Both AI-10-49 groups received a daily dose of AI-10-49 (200 mg/kg) in DMSO injected intraperitoneally for 10 days. After this 10-day period, all mice were sacrificed and analyzed for leukemia burden via several measures. Mice were kept under observation by more than one person to determine the median leukemia latency, and were euthanized once signs of disease were detected, including reduced motility and grooming activity, hunched back, pale paws (anemia), and hypothermia. At time of euthanasia, peripheral blood and spleen cells were extracted and analyzed as previously described (Y. H. Kuo, et al., 2006.). Leukemia burden was analyzed in peripheral blood by measuring the total white blood cell counts, the number of cells in the c-kit(+)-gated population, spleen weight and cell number, and spleen Lin-Sca1-c-kit+ population. For Kit+ and Lin-Sca-Kit+ results, flow cytometry was used to measure the effect.

[4] = system: ME-1 cell line, a leukemia cell line with inv(16); details: cited from earlier work
[5] = target: T1, CBFβ (Homo sapiens, UniProt Q13951); details: cited from earlier work
T1 sequence (Q13951 1-182): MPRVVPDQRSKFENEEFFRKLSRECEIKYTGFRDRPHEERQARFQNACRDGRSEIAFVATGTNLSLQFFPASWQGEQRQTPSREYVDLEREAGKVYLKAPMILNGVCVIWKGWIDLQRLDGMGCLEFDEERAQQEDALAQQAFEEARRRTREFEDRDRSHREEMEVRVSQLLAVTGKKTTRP

[6] = compared with doxorubicin; cited from earlier work
[7] = compared with daunorubicin; cited from earlier work
[8] = compared with daunorubicin; cited from earlier work; remark: listed apart in the source

In the case of `FC(F)(F)Oc1ccc2[nH]c(-c3ccccn3)nc2c1` [A-10-47, 2-(pyridin-2-yl)-5-(trifluoromethoxy)-1H-benzo[d]imidazole], the metabolic stability [1] is listed as “enhanced metabolic stability”.

For `COc1ccc2[nH]c(-c3ccccn3)nc2c1` [AI-4-57, 5-methoxy-2-(pyridin-2-yl)-1H-benzo[d]imidazole], the “binding to the CBFβ-SMMHC fusion protein” value [2] is listed as “binds to the CBFβ portion of the CBFβ-SMMHC fusion protein” and the “inhibition of CBFβ-SMMHC binding to the Runt domain of RUNX proteins” value [2] is listed as “inhibits its binding to the Runt domain of RUNX proteins”.

In the case of `FC(F)(F)Oc1ccc2[nH]c(-c3ccc(OCCOCCOc4ccc(-c5nc6cc(OC(F)(F)F)ccc6[nH]5)nc4)cn3)nc2c1` [AI-10-49], the “white blood cell count” value [3] is listed as “reduced”, the “Lin-Sca1-c-Kit+ cell population (number of cells)” value [3] is listed as “modest effect” and the cell death [4] is listed as “induced cell death”. The “inhibition of CBFβ-SMMHC binding to the Runt domain of RUNX proteins” value [2] was “potent and CBFβ-SMMHC specific” and the “effect on CBFβ function” value [5] was “minimal effect”.

With `COc1cccc2c1C(=O)c1c(O)c3c(c(O)c1C2=O)C[C@@](O)(C(=O)CO)C[C@@H]3O[C@H]1C[C@H](N)[C@H](O)[C@H](C)O1` [Dox, doxorubicin] the “white blood cell count” value [3] was “reduced” and the “Lin-Sca1-c-Kit+ cell population (number of cells)” value [3] was “no effect”.

In the case of `COc1cccc2c1C(=O)c1c(O)c3c(c(O)c1C2=O)C[C@@](O)(C(=O)CO)C[C@@H]3O[C@H]1C[C@H](N)[C@@H](O)[C@H](C)O1` [Epirubicin], the half-life [6] is listed as “longer” and the volume of distribution [6] is listed as “increased”.

For `CC(=O)[C@]1(O)Cc2c(O)c3c(c(O)c2[C@@H](O[C@H]2C[C@H](N)[C@H](O)[C@H](C)O2)C1)C(=O)c1ccccc1C3=O` [Idarubicin], the lipophilicity [7] is listed as “more lipophilic” and the cellular uptake [8] is listed as “higher”.
